Reference: patent US9567358B2, “Methods of treatment using N-(3-fluorophenyl)-2-{3-[(7-{3-[ethyl(2-hydroxyethyl)amino]propoxy}-quinazolin-4-yl)amino]-1H-pyrazol-5-yl}acetamide” (AstraZeneca AB, priority 2002, dated 2017)

Assays:
[1] = target: T1, Aurora-B (Homo sapiens, UniProt Q96GD4); assay: In vitro Aurora-B kinase inhibition test; assay type: biochemical; conditions: recombinant Aurora-B, 33P-ATP peptide substrate filter assay, 60 minutes, room temperature; read-out: concentration giving 50% inhibition of enzyme activity
T1 construct: 6-histidine tag; made in house; host or cells: Spodoptera frugiperda Sf21 insect cells (baculovirus)
T1 sequence (Q96GD4 whole entry): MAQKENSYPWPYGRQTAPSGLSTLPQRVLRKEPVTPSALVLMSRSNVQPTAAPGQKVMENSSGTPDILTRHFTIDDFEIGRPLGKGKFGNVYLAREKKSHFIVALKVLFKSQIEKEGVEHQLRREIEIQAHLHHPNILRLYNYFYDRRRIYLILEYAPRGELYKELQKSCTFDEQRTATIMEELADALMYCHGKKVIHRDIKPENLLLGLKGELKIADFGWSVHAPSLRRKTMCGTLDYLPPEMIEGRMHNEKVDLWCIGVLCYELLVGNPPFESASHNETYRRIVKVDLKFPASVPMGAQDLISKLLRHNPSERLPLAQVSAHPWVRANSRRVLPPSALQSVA
Excerpt: (b) In Vitro Aurora-B Kinase Inhibition Test
This assay determines the ability of a test compound to inhibit serine-threonine kinase activity. DNA encoding Aurora-B may be obtained by total gene synthesis or by cloning. This DNA may then be expressed in a suitable expression system to obtain polypeptide with serine-threonine kinase activity. In the case of Aurora-B, the coding sequence was isolated from cDNA by polymerase chain reaction (PCR) and cloned into the pFastBac system in a manner similar to that described above for Aurora-A (i.e. to direct expression of a 6-histidine tagged Aurora-B protein).
For the large scale expression of Aurora-B kinase activity, Sf21 insect cells were grown at 28° C. in TC100 medium supplemented with 10% foetal calf serum (Viralex) and 0.2% F68 Pluronic (Sigma) on a Wheaton roller rig at 3 r.p.m. When the cell density reached 1.2×10^6 cells ml^−1 they were infected with plaque-pure Aurora-B recombinant virus at a multiplicity of infection of 1 and harvested 48 hours later. All subsequent purification steps were performed at 4° C. […]

[2] = target: T2, Aurora-A (Homo sapiens, UniProt O14965); assay: In vitro Aurora-A kinase inhibition test; assay type: biochemical
T2 construct: 6 histidine tag with spacer region and rTEV protease cleavage site (pFastBac HTc) (N); made in house; host or cells: Spodoptera frugiperda Sf21 insect cells (baculovirus)
T2 sequence (O14965 1-403): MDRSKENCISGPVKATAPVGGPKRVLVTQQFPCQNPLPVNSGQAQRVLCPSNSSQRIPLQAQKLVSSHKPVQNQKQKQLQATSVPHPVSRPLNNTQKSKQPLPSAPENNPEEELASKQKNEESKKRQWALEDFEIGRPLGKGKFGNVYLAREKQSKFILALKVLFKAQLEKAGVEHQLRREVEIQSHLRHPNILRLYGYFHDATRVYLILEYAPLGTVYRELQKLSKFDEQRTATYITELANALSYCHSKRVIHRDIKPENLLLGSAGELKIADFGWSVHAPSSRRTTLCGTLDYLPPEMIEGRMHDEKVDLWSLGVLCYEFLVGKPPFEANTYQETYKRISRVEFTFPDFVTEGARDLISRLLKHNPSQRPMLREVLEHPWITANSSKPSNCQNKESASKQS

[3] = tested on: human tumour cell line SW620; assay: In vitro cell proliferation assay (BrdU incorporation); assay type: cell-based; conditions: SW-620, SW620 cells, 48 hours with compound, 2 hour BrdU labelling, read-out: active at (concentration giving 50% inhibition of BrdU incorporation)
Excerpt: (c) In Vitro Cell Proliferation Assay
This and other assays can be used to determine the ability of a test compound to inhibit the growth of adherent mammalian cell lines, for example the human tumour cell line SW620 (ATCC CCL-227). This assay determines the ability of at test compound to inhibit the incorporation of the thymidine analogue, 5′-bromo-2′-deoxy-uridine (BrdU) into cellular DNA. SW620 or other adherent cells were typically seeded at 1×10^5 cells per well in L-15 media (GIBCO) plus 5% foetal calf serum, 1% L-glutamine (100 μl/well) in 96 well tissue culture treated 96 well plates (Costar) and allowed to adhere overnight. […] The optical density of the wells was then determined at 690 nm wavelength using a Titertek Multiscan plate reader. […]

What does the source list for `COc1cc2c(Nc3cc(CC(=O)Nc4cccc(F)c4)[nH]n3)ncnc2cc1OCCCN1CCC[C@H]1COP(=O)(O)O` [Compound 5, {(2S)-1-[3-({4-[(5-{2-[(3-fluorophenyl)amino]-2-oxoethyl}-1H-pyrazol-3-yl)amino]-6-methoxyquinazolin-7-yl}oxy)propyl]pyrrolidin-2-yl}methyl dihydrogen phosphate]?
IC50 [1]: 1.6 nM; IC50 [2]: 5.5 nM; IC50 [3]: 0.1 nM
